Data as given in article PMC11222147, “Host defence peptide plectasin targets bacterial cell wall precursor lipid II by a calcium-sensitive supramolecular mechanism” (Nature Microbiology, 2024).
Converted amounts (≈) assume the structure as drawn. Where a SMILES comes first, the peptide text is derived from it. Bridges are numbered along the chain shown (N, C = ends). Where no end group is shown, it is not given here.

Test system: S. simulans 22
Assay: MIC assays under standard conditions
Type: cell-based, Staphylococcus simulans
Conditions: for Minimum inhibitory concentration, S. simulans: Supplementary Table 1, 16–20 h
Procedure: Plectasin and analogues were serially diluted in cation-adjusted Mueller–Hinton broth (MHB) in round-bottom polypropylene 96-well plates (50 µl per well). Selected bacterial strains were grown from glycerol stocks on blood agar plates. Individual colonies were inoculated in TSB and incubated at 37 °C while shaking until OD600 reached 0.5. Bacterial suspensions were then diluted 100 times in cation-adjusted MHB and distributed (50 μl per well) over the microplate containing the diluted plectasin solutions. Plates were covered by a gas-permeable adhesive membrane and incubated at 37 °C while shaking. MICs were determined by visual inspection after 16–20 h (Staphylococcus) or 20–24 h (Streptococcus). For Streptococcus strains, the broth was additionally supplemented with 5% lysed horse blood, and the microplates were incubated under 5% CO2 atmosphere. In the assays, we used the following strains: S. simulans, S. pneumoniae serotype 8, S. pneumoniae ATCC6305 and Streptococcus pyogenes M3.

Row | Molecule | Minimum inhibitory concentration, S. simulans (cation-adjusted MHB, 37 °C) | further results
1 | CC[C@H](C)[C@@H]1NC(=O)[C@H](CO)NC(=O)[C@H](CCCCN)NC(=O)[C@@H]2CSSC[C@@H](C(=O)N[C@@H](Cc3ccc(O)cc3)C(=O)O)NC(=O)[C@H](CCCCN)NC(=O)[C@@H]3CSSC[C@H](NC(=O)[C@H](CCC(N)=O)NC(=O)[C@H](CCSC)NC(=O)[C@H](CC(=O)O)NC(=O)[C@H](CC(=O)O)NC(=O)[C@H](CCC(=O)O)NC(=O)[C@H](CC(=O)O)NC(=O)[C@H](Cc4c[nH]c5ccccc45)NC(=O)[C@@H]4CCCN4C(=O)CNC(=O)[C@H](CC(N)=O)NC(=O)[C@@H](NC(=O)CNC(=O)[C@H](Cc4ccccc4)NC(=O)CN)CSSC[C@H](NC(=O)[C@H](Cc4ccc(O)cc4)NC(=O)CNC(=O)CNC(=O)[C@H](CCCCN)NC(=O)[C@H](Cc4ccc(O)cc4)NC(=O)CNC(=O)[C@H](C)NC1=O)C(=O)N[C@@H](C)C(=O)N[C@@H](CCCCN)C(=O)NCC(=O)NCC(=O)N[C@@H](Cc1ccccc1)C(=O)N[C@@H](C(C)C)C(=O)N3)C(=O)N[C@@H](Cc1c[nH]cn1)C(=O)N[C@@H](CC(N)=O)C(=O)N[C@@H](Cc1c[nH]cn1)C(=O)N2 [K23A] (H-GFGCNGPWDEDDMQCHNHCKSIAGYKGGYCAKGGFVCKCY-OH; disulfide 4-30, 15-37, 19-39 (inferred); N-terminus and C-terminus assumed) |  | reduction in activity vs plectasin (from MIC of Table 1): fivefold to tenfold; MIC (standard conditions, cation-adjusted MHB, 37 °C, visual inspection after 16–20 h): 6.25 µg/mL (≈ 1.44 µM)
2 | CC[C@H](C)[C@@H]1NC(=O)[C@H](CO)NC(=O)[C@H](CCCCN)NC(=O)[C@@H]2CSSC[C@@H](C(=O)N[C@@H](Cc3ccc(O)cc3)C(=O)O)NC(=O)[C@H](CCCCN)NC(=O)[C@@H]3CSSC[C@H](NC(=O)[C@H](CCC(N)=O)NC(=O)[C@H](CCSC)NC(=O)[C@H](CC(=O)O)NC(=O)[C@H](CC(=O)O)NC(=O)[C@H](CCC(=O)O)NC(=O)[C@H](CC(=O)O)NC(=O)[C@H](Cc4c[nH]c5ccccc45)NC(=O)[C@@H]4CCCN4C(=O)CNC(=O)[C@H](CC(N)=O)NC(=O)[C@@H](NC(=O)CNC(=O)[C@H](Cc4ccccc4)NC(=O)CN)CSSC[C@H](NC(=O)[C@H](Cc4ccc(O)cc4)NC(=O)CNC(=O)CNC(=O)[C@H](CCCCN)NC(=O)[C@H](C(C)C)NC(=O)CNC(=O)[C@H](CCCCN)NC1=O)C(=O)N[C@@H](C)C(=O)N[C@@H](CCCCN)C(=O)NCC(=O)NCC(=O)N[C@@H](Cc1ccccc1)C(=O)N[C@@H](C(C)C)C(=O)N3)C(=O)N[C@@H](Cc1c[nH]cn1)C(=O)N[C@@H](CC(N)=O)C(=O)N[C@@H](Cc1c[nH]cn1)C(=O)N2 [Y25V] (H-GFGCNGPWDEDDMQCHNHCKSIKGVKGGYCAKGGFVCKCY-OH; disulfide 4-30, 15-37, 19-39 (inferred); N-terminus and C-terminus assumed) | 6,25 μg/mL | 
3 | CSCC[C@@H]1NC(=O)[C@H](CC(=O)O)NC(=O)[C@H](CC(=O)O)NC(=O)[C@H](CCC(=O)O)NC(=O)[C@H](CC(=O)O)NC(=O)[C@H](Cc2c[nH]c3ccccc23)NC(=O)[C@@H]2CCCN2C(=O)CNC(=O)[C@H](CC(N)=O)NC(=O)[C@@H](NC(=O)CNC(=O)[C@H](Cc2ccccc2)NC(=O)CN)CSSC[C@@H]2NC(=O)[C@H](Cc3ccc(O)cc3)NC(=O)CNC(=O)CNC(=O)[C@H](CCCCN)NC(=O)[C@H](Cc3ccc(O)cc3)NC(=O)CNC(=O)[C@H](CCCCN)NC(=O)[C@H](Cc3ccccc3)NC(=O)[C@H](CO)NC(=O)[C@H](CCCCN)NC(=O)[C@@H]3CSSC[C@@H](C(=O)N[C@@H](Cc4ccc(O)cc4)C(=O)O)NC(=O)[C@H](CCCCN)NC(=O)[C@H](CSSC[C@H](NC(=O)[C@H](CCC(N)=O)NC1=O)C(=O)N[C@@H](Cc1c[nH]cn1)C(=O)N[C@@H](CC(N)=O)C(=O)N[C@@H](Cc1c[nH]cn1)C(=O)N3)NC(=O)[C@H](C(C)C)NC(=O)[C@H](Cc1ccccc1)NC(=O)CNC(=O)CNC(=O)[C@H](CCCCN)NC(=O)[C@H](C)NC2=O [I22F] (H-GFGCNGPWDEDDMQCHNHCKSFKGYKGGYCAKGGFVCKCY-OH; disulfide 4-30, 15-37, 19-39 (inferred); N-terminus and C-terminus assumed) | > 50 µg/mL | 
4 | CC[C@H](C)[C@@H]1NC(=O)[C@H](CO)NC(=O)[C@H](CCCCN)NC(=O)[C@@H]2CSSC[C@@H](C(=O)N[C@@H](Cc3ccc(O)cc3)C(=O)O)NC(=O)[C@H](CCCCN)NC(=O)[C@@H]3CSSC[C@H](NC(=O)[C@H](CCC(N)=O)NC(=O)[C@H](CCSC)NC(=O)[C@H](CC(=O)O)NC(=O)[C@H](CC(=O)O)NC(=O)[C@H](CCC(=O)O)NC(=O)[C@H](CC(=O)O)NC(=O)[C@H](Cc4c[nH]c5ccccc45)NC(=O)[C@@H]4CCCN4C(=O)CNC(=O)[C@H](CC(N)=O)NC(=O)[C@@H](NC(=O)CNC(=O)[C@H](Cc4ccccc4)NC(=O)CN)CSSC[C@H](NC(=O)[C@H](Cc4ccc(O)cc4)NC(=O)CNC(=O)CNC(=O)[C@H](CCCCN)NC(=O)[C@H](Cc4c[nH]cn4)NC(=O)CNC(=O)[C@H](CCCCN)NC1=O)C(=O)N[C@@H](C)C(=O)N[C@@H](CCCCN)C(=O)NCC(=O)NCC(=O)N[C@@H](Cc1ccccc1)C(=O)N[C@@H](C(C)C)C(=O)N3)C(=O)N[C@@H](Cc1c[nH]cn1)C(=O)N[C@@H](CC(N)=O)C(=O)N[C@@H](Cc1c[nH]cn1)C(=O)N2 [Y25H] (H-GFGCNGPWDEDDMQCHNHCKSIKGHKGGYCAKGGFVCKCY-OH; disulfide 4-30, 15-37, 19-39 (inferred); N-terminus and C-terminus assumed) | ≤ 0.78 µg/mL | 
5 | CSCC[C@@H]1NC(=O)[C@H](CC(=O)O)NC(=O)[C@H](CC(=O)O)NC(=O)[C@H](CCC(=O)O)NC(=O)[C@H](CC(=O)O)NC(=O)[C@H](Cc2c[nH]c3ccccc23)NC(=O)[C@@H]2CCCN2C(=O)CNC(=O)[C@H](CC(N)=O)NC(=O)[C@@H](NC(=O)CNC(=O)[C@H](Cc2ccccc2)NC(=O)CN)CSSC[C@@H]2NC(=O)[C@H](Cc3ccc(O)cc3)NC(=O)CNC(=O)CNC(=O)[C@H](CCCCN)NC(=O)[C@H](Cc3ccc(O)cc3)NC(=O)CNC(=O)[C@H](CCCCN)NC(=O)[C@H](CC(=O)O)NC(=O)[C@H](CO)NC(=O)[C@H](CCCCN)NC(=O)[C@@H]3CSSC[C@@H](C(=O)N[C@@H](Cc4ccc(O)cc4)C(=O)O)NC(=O)[C@H](CCCCN)NC(=O)[C@H](CSSC[C@H](NC(=O)[C@H](CCC(N)=O)NC1=O)C(=O)N[C@@H](Cc1c[nH]cn1)C(=O)N[C@@H](CC(N)=O)C(=O)N[C@@H](Cc1c[nH]cn1)C(=O)N3)NC(=O)[C@H](C(C)C)NC(=O)[C@H](Cc1ccccc1)NC(=O)CNC(=O)CNC(=O)[C@H](CCCCN)NC(=O)[C@H](C)NC2=O [I22D] (H-GFGCNGPWDEDDMQCHNHCKSDKGYKGGYCAKGGFVCKCY-OH; disulfide 4-30, 15-37, 19-39 (inferred); N-terminus and C-terminus assumed) | > 50 µg/mL | 
6 | nisin (ITSISLCTPGCKTGALMGCNMKTATCHCSIHVSK; not fully specified (some residues, bridges); also: lantibiotic nisin-A (thioether rings, dehydro residues) not placed; UniProt P13068 24-57, looked up) [reference compound] |  | MIC towards S. simulans as quoted in Extended Data Fig. 8 (legend of the permeabilization assays): 0.075 µM
7 | CSCC[C@@H]1NC(=O)[C@H](CC(=O)O)NC(=O)[C@H](CC(=O)O)NC(=O)[C@H](CCC(=O)O)NC(=O)[C@H](CC(=O)O)NC(=O)[C@H](Cc2c[nH]c3ccccc23)NC(=O)[C@@H]2CCCN2C(=O)CNC(=O)[C@H](CC(N)=O)NC(=O)[C@@H](NC(=O)CNC(=O)[C@H](Cc2ccccc2)NC(=O)CN)CSSC[C@@H]2NC(=O)[C@H](Cc3ccc(O)cc3)NC(=O)CNC(=O)CNC(=O)[C@H](CCCCN)NC(=O)[C@H](Cc3ccc(O)cc3)NC(=O)CNC(=O)[C@H](CCCCN)NC(=O)[C@H](C(C)C)NC(=O)[C@H](CO)NC(=O)[C@H](CCCCN)NC(=O)[C@@H]3CSSC[C@@H](C(=O)N[C@@H](Cc4ccc(O)cc4)C(=O)O)NC(=O)[C@H](CCCCN)NC(=O)[C@H](CSSC[C@H](NC(=O)[C@H](CCC(N)=O)NC1=O)C(=O)N[C@@H](Cc1c[nH]cn1)C(=O)N[C@@H](CC(N)=O)C(=O)N[C@@H](Cc1c[nH]cn1)C(=O)N3)NC(=O)[C@H](C(C)C)NC(=O)[C@H](Cc1ccccc1)NC(=O)CNC(=O)CNC(=O)[C@H](CCCCN)NC(=O)[C@H](C)NC2=O [I22V] (H-GFGCNGPWDEDDMQCHNHCKSVKGYKGGYCAKGGFVCKCY-OH; disulfide 4-30, 15-37, 19-39 (inferred); N-terminus and C-terminus assumed) | 1,56 μg/mL | 
8 | CC[C@H](C)[C@@H]1NC(=O)CNC(=O)[C@H](CCCCN)NC(=O)[C@H]([C@@H](C)CC)NC(=O)[C@H](CO)NC(=O)[C@H](CCCCN)NC(=O)[C@@H]2CSSC[C@@H](C(=O)N[C@@H](Cc3ccc(O)cc3)C(=O)O)NC(=O)[C@H](CCCCN)NC(=O)[C@@H]3CSSC[C@H](NC(=O)[C@H](CCC(N)=O)NC(=O)[C@H](CCSC)NC(=O)[C@H](CC(=O)O)NC(=O)[C@H](CC(=O)O)NC(=O)[C@H](CCC(=O)O)NC(=O)[C@H](CC(=O)O)NC(=O)[C@H](Cc4c[nH]c5ccccc45)NC(=O)[C@@H]4CCCN4C(=O)CNC(=O)[C@H](CC(N)=O)NC(=O)[C@@H](NC(=O)CNC(=O)[C@H](Cc4ccccc4)NC(=O)CN)CSSC[C@H](NC(=O)[C@H](Cc4ccc(O)cc4)NC(=O)CNC(=O)CNC(=O)[C@H](CCCCN)NC1=O)C(=O)N[C@@H](C)C(=O)N[C@@H](CCCCN)C(=O)NCC(=O)NCC(=O)N[C@@H](Cc1ccccc1)C(=O)N[C@@H](C(C)C)C(=O)N3)C(=O)N[C@@H](Cc1c[nH]cn1)C(=O)N[C@@H](CC(N)=O)C(=O)N[C@@H](Cc1c[nH]cn1)C(=O)N2 [Y25I] (H-GFGCNGPWDEDDMQCHNHCKSIKGIKGGYCAKGGFVCKCY-OH; disulfide 4-30, 15-37, 19-39 (inferred); N-terminus and C-terminus assumed) | 6,25 μg/mL | 
